The values that follow come from patent publication US20050192182A1, “Herbicidal mixtures based on substituted aryl ketones” (priority 2001, published 2005).

The test system of one assay is LIDPY. Kind of assay: Test in transplanted paddy rice (greenhouse), water-surface application. Format: in vivo, Lindernia. The note with it: 3 weeks after application. The source says: (§1) Test in Transplanted Paddy Rice
(§2) To produce a preparation of active compound, 1 part by weight of an active compound combination according to the invention is mixed with the stated amount of solvent and, after addition of the stated amount of emulsifier, diluted with water to the desired concentration.
(§3) Vessels for planting (500 cm^2) are filled with soil from a rice field. In each case 3 rice plants (cultivar: Nipponbare, 2-3-leaf stage, height: about 15 cm) are planted into the center of the vessels for planting. Seeds of Cyperus, Echinochloa, Lindernia, Rotala and Elatine are sown into the same vessels for planting. The soil in the vessels is kept moist. After two days, each vessel for planting is flooded to a water depth of 2-3 cm.
(§4) Five days after the transplanting of the rice plants, the amount of active compound in the preparation described above is applied to the surface of the water in the vessels for planting using a pipette. The water depth in the vessels for planting is kept at 2-3 cm.
(§5) 3 weeks after the application of active compound, the efficacy is rated in % damage in comparison to the untreated control.
(§6) The figures denote • 0% no effect/damage (like untreated control) • 100% total destruction

A further assay concerns ROTIN. The assay is described as above. Format: in vivo, Rotala. The settings on record: 3 weeks after application.
Description: as §1, §2, §3, §4, §5, §6

Another assay has as its system ELTTP. Described as above. In kind it is in vivo, Elatine. The note with it: 3 weeks after application.
Description: as §1, §2, §3, §4, §5, §6

The next assay relates to Abutilon theophrasti. Briefly: Post-emergence greenhouse spray test. The settings on record: about 3 weeks. Format: in vivo. The method, then: (§7) The required amount of active compound or formulation is dissolved in a few milliliters (2-3 ml) of the solvent (acetone or DMF), an emulsifier (1 ml) is added, if required, and the mixture is diluted with water to the desired concentration.
(§8) Mixtures are prepared by mixing a predetermined dissolved amount of the first active compound with the required amount of the second active compound (and, if desired, with additional active compounds/formulations or other ingredients), and then diluting the mixture with water to the desired concentration.
(§9) In pre- and post-emergence experiments, a surfactant (Renex 36) is usually added, at a concentration of 0.1%, to the spray solution.
(§10) The amount of active compound or formulation is chosen such that the desired application rate per ha is achieved.
(§11) Test plants are grown under controlled conditions (temperature and light). Once the plants have reached a height of 5-15 cm, the test compound or the combination of test compounds is applied by spraying such that the particular amounts of active compound desired are applied per unit area. The concentration of the spray liquor is chosen such that the desired amounts of active compound are in each case applied in 500 1 of water/ha.
(§12) After the spray application, the vessels containing the plants are stored in a greenhouse under constant conditions with respect to light and temperature.
(§13) After about 3 weeks, the degree of damage to the plants is rated in % damage in comparison to the development of the untreated control.
(§14) The figures denote: • 0%=no damage (like untreated control) • 100%=total destruction/damage • a.i.=active ingredient Flufenacet Tested as 60 WG • (I-31)/(I-34) tested as active compounds • * values calculated according to Colby

Another assay relates to Amaranthus retroflexus. Kind of assay: Post-emergence greenhouse spray test. Format: in vivo. The note with it: about 3 weeks. As to the method: as §7, §8, §9, §10, §11, §12, §13, §14
Another assay concerns Chenopodium album. Kind of assay: Post-emergence greenhouse spray test. Format: in vivo. The settings on record: about 3 weeks. As to the method:
as §7, §8, §9, §10, §11, §12, §13, §14

The subject of the next assay is Solanum nigrum. Kind of assay: Post-emergence greenhouse spray test. Format: in vivo. The note with it: about 3 weeks. As to the method: as §7, §8, §9, §10, §11, §12, §13, §14
Another assay deals with Digitaria sanguinalis. Kind of assay: Post-emergence greenhouse spray test. In kind it is in vivo. The note with it: about 3 weeks. The method, then:
as §7, §8, §9, §10, §11, §12, §13, §14

In a further assay the test system is CYPDI. Kind of assay: Test in transplanted paddy rice (greenhouse), water-surface application. In kind it is in vivo, Cyperus. The settings on record: 135 g/ha, 3 weeks after application.
Description: as §1, §2, §3, §4, §5, §6

The test system of the next assay is ECHSS. Described as above. The settings on record: 135 g/ha, 3 weeks after application. Format: in vivo, Echinochloa.
Description: as §1, §2, §3, §4, §5, §6

Each structure is given as a SMILES string.

As for `Cn1nnn(CCOc2c(Cl)ccc(C(=O)C3C(=O)CCCC3=O)c2Cl)c1=O` [Example I-22, 2-[2,4-dichloro-3-[2-(4-methyl-5-oxo-4,5-dihydro-1H-tetrazol-1-yl)-ethoxy]-benzoyl]-1,3-cyclohexanedione], the results for the “efficacy in % damage, Compound (I) alone” value in the assay on LIDPY (30 g/ha), in the assay on ROTIN (30 g/ha) and in the assay with ELTTP (30 g/ha) were 70%, 70% and 60%, respectively.

As for `O=C1CC[C@@H](COc2c(Br)ccc(C(=O)C3C(=O)CCCC3=O)c2Br)N1` [Example I-31, (5S)-5-[[2,6-dibromo-3-[(2,6-dioxo-1-cyclohexyl)-carbonyl]-phenoxy]-methyl]-2-pyrrolidinone], the “Abutilon theophrasti observed (% damage)” value turned out to be 0% with Abutilon theophrasti (15 g of ai/ha) and 10% with Abutilon theophrasti (30 g of ai/ha). In addition, the “Amaranthus retroflexus observed (% damage)” value in the assay on Amaranthus retroflexus (8 g of ai/ha), in the assay on Amaranthus retroflexus (15 g of ai/ha) and in the assay on Amaranthus retroflexus (30 g of ai/ha) was 0% in each case. Further, the “Chenopodium album observed (% damage)” value came out at 0% in the assay with Chenopodium album (15 g of ai/ha) and 20% in the assay with Chenopodium album (30 g of ai/ha). The “Solanum nigrum observed (% damage)” value in the assay on Solanum nigrum (30 g of ai/ha) amounted to 10%.

As for `O=C1CC[C@@H](COc2c(Cl)ccc(C(=O)C3C(=O)CCCC3=O)c2Cl)N1` [Example I-34, (5S)-5-[[2,6-dichloro-3-[(2,6-dioxo-1-cyclohexyl)-carbonyl]-phenoxy]-methyl]-2-pyrrolidinone], the “Amaranthus retroflexus observed (% damage)” value in the assay with Amaranthus retroflexus (15 g of ai/ha) and with Amaranthus retroflexus (30 g of ai/ha) was 0% in each case. The “Chenopodium album observed (% damage)” value with Chenopodium album (15 g of ai/ha) and with Chenopodium album (30 g of ai/ha) was 90% each time. For the same molecule, the “Digitaria sanguinalis observed (% damage)” value in the assay on Digitaria sanguinalis (15 g of ai/ha) and in the assay with Digitaria sanguinalis (30 g of ai/ha) was 0% each time.

Turning to `CC(C)N(C(=O)COc1nnc(C(F)(F)F)s1)c1ccc(F)cc1` [Flufenacet, N-(4-fluoro-phenyl)-N-i-propyl-2-(5-trifluoromethyl-1,3,4-thiadiazol-2-yl-oxy)-acetamide, reference compound], in the assay with Abutilon theophrasti (125 g of ai/ha), the “Abutilon theophrasti observed (% damage)” value is 0%. Besides, the “Amaranthus retroflexus observed (% damage)” value in the assay on Amaranthus retroflexus (125 g of ai/ha) turned out to be 60%. Besides, the “Chenopodium album observed (% damage)” value in the assay with Chenopodium album (125 g of ai/ha) turned out to be 0%. In addition, the “Solanum nigrum observed (% damage)” value with Solanum nigrum (125 g of ai/ha) was found to be 30%. Moreover, the “Digitaria sanguinalis observed (% damage)” value with Digitaria sanguinalis (125 g of ai/ha) was 70%.

On to `CCN(C(=O)n1nnn(-c2ccccc2Cl)c1=O)C1CCCCC1` [fentrazamide, 4-(2-chloro-phenyl)-N-cyclohexyl-N-ethyl-4,5-dihydro-5-oxo-1H-tetrazole-1-carboxamide, reference compound], for which the “efficacy in % damage, Compound (II) alone” value is recorded as 60% in the assay on LIDPY (135 g/ha); 60% with CYPDI; 60% in the assay with ROTIN (135 g/ha); 60% in the assay on ELTTP (135 g/ha); 70% in the assay with ECHSS.
